# In US10736343B2, “Antimicrobial formulations with pelargonic acid” (ANITOX CORPORATION, priority 2011, dated 2020):
# Read-outs that look alike come from different tables or passages of the source.
# What was measured:
# [1] = test system: Staphylococcus aureus, E. coli and Salmonella typhimurium; details: cited from earlier work
# [2] = test system: Salmonella typhimurium (ATCC #14028); assay: Salmonella typhimurium suspension in test tubes with formaldehyde and/or pelargonic acid, plate count (Example 2); format: cell-based
# Method: (§1) Solutions were vortexed for 10 seconds to ensure mixing. There were three replicate tubes per treatment. A suspension of Salmonella typhimurium (10^3 cfu/ml, ATCC #14028) was added to three test tubes containing each formulation. The solutions were vortexed, incubated at room temperature for 24 hours and plated on SMA (Standard Methods Agar) for 24 hours before counting Salmonella colonies.
# [3] = test system: Salmonella typhimurium (ATCC #14028); assay: Salmonella typhimurium suspension in test tubes with formaldehyde and/or pelargonic acid, plate count (Example 1); format: cell-based
# Method: as §1, with “hours” for “hours and”
# [4] = test system: parasite C. irritans; details: cited from earlier work
# [5] = test system: M. gypseum; details: cited from earlier work
# [6] = test system: Salmonella typhimurium; assay: In vitro test of aldehyde / hexenal / pelargonic acid formulations against Salmonella typhimurium suspension (Example 7); format: cell-based; details: for ability to replace trans-2-hexenal (in words): At both 5% and 10% pelargonic acid
# Method: Seven aldehydes (butyraldehyde, citral, undecylenic aldehyde, decadienal, cinnamaldehyde, decanal and furfural) were blended with trans-2-hexenal, pelargonic acid, propionic acid and acetic acid as presented in Table 9. A 20% (X−1) and a 25% (F18) hexanal: organic acid product were included as positive controls. […] Solutions were vortexed for 10 seconds to uniformly mix the solution. There were three replicate tubes per treatment. […] The solutions were vortexed, incubated at room temperature for 24 hours and then plated on XLT-4 agar for 48 hours before counting Salmonella colonies.
# [7] = test system: Salmonella typhimurium; assay: In vitro test of five formulations against Salmonella typhimurium suspension (Example 3); format: cell-based; details: pelargonic acid at 10% of formula
# Method: Formulations were added to test tubes at concentrations of 0.01% and 0.05%. Solutions were vortexed for 10 seconds to ensure mixing. There were three replicate tubes per treatment.
# A suspension of Salmonella typhimurium (10^4 cfu/ml) was added to three test tubes containing the different dilutions of each formulation. The tubes were vortexed, incubated at room temperature for 24 hours and then the solution was plated on SMA (Standard Methods Agar) for 48 hours before counting Salmonella colonies.
# [8] = test system: Salmonella typhimurium; assay: Residual activity in treated poultry mash feed contaminated after treatment (Example 6); format: cell-based; details: for % Reduction at 13 Days: feed contaminated 13 days post treatment
# Method: Formula 1 from Example 3 composed of 25% trans-2-hexenal, 5% pelargonic acid and 70% aqueous organic acids was compared to trans-2-hexenal for residual activity in feed. Poultry mash feed was treated with 0.1, 0.25, 0.5 or 1.0 kg/ton of hexenal compared to 1 kg/ton of the hexenal: pelargonic acid combination product (0.25 kg/ton of hexenal), At 1, 6 and 13 days post treatment, feed was contaminated with a meat and bone meal inoculum of Salmonella typhimurium at a level of 10^3 cfu/g of feed. After 24 hours, 10 g of subsamples of the untreated and treated feed were suspended in 90 ml Butterfield buffer. Dilutions were plated on XLT-4 agar and incubated at 37° C. for 48 hours before counting Salmonella colonies.
# [9] = test system: yeast (10^5 CFU/bottle); details: cited from earlier work
# [10] = test system: Phoma mycelium; details: cited from earlier work
# [11] = test system: Helicobacter pylori and S. cholerasuis; details: cited from earlier work
# [12] = test system: Penicillium expansum; details: cited from earlier work
# [13] = test system: P. syringae pathovars; details: cited from earlier work
# [14] = test system: apricots, peaches and nectarines; details: cited from earlier work
# [15] = test system: B. cereus, S. typhimurium, V. parahaemolyticus, L. monocytogenes, S. aureus and E. coli O157:H7; details: cited from earlier work
# [16] = test system: pears and apples; details: 12.5 μL/L, twenty four hours to seven days exposure; cited from earlier work
# [17] = test system: E. coli; details: cited from earlier work
# [18] = rat, cited from earlier work
# [19] = test system: mold; details: 0.86 or 1.71 mmol per 1.1 L container for 2 weeks; cited from earlier work
# [20] = test system: A. flavus, P. notatum, A. alternate, F. oxysporum, Cladosporium species, B. subtilis and A. tumerfaciens; details: cited from earlier work
# [21] = rat, in vivo; cited from earlier work
# [22] = formaldehyde 0.00312 %, pelargonic acid 0 %
# [23] = formaldehyde 0.00625 %, pelargonic acid 0 %
# [24] = formaldehyde 0.0125 %, pelargonic acid 0 %
# [25] = formaldehyde 0.025 %, pelargonic acid 0 %
# [26] = formaldehyde 0 %, pelargonic acid 0.00125 %
# [27] = formaldehyde 0 %, pelargonic acid 0.0025 %
# [28] = At 5% pelargonic acid, aldehyde by itself
# [29] = At 10% pelargonic acid, 20% aldehyde
structure (smiles),measurement,setting,value
CC/C=C/CC=O [(3E)-hexenal],level effective in controlling,[1],3 to 30 µg/mL
C=O [Formaldehyde],Salmonella % reduction,[2]; [22],17.7%
same,Salmonella % reduction,[2]; [23],41.0%
same,Salmonella % reduction,[2]; [24],50.5%
same,Salmonella % reduction,[2]; [25],88.3%
same,Salmonella % reduction,[3]; [22],17.3%
same,Salmonella % reduction,[3]; [23],39.3%
same,Salmonella % reduction,[3]; [24],59.0%
same,Salmonella % reduction,[3]; [25],90.8%
"CCCCCCCCC(=O)O [Pelargonic acid, Pelargonic acid (nonanoic acid)]",control of parasite growth (in words),[4],effective in controlling the growth
same,Salmonella % reduction,[2]; [26],2.1%
same,Salmonella % reduction,[2]; [27],8.8%
same,Salmonella % reduction,"[2]; formaldehyde 0 %, pelargonic acid 0.005 %",96.5%
same,Salmonella % reduction,"[2]; formaldehyde 0 %, pelargonic acid 0.01 %",100%
same,effect on bactericidal efficacy of formaldehyde (in words),[2]; pelargonic acid 0.00125% and 0.0025% mixed with formaldehyde,the bactericidal efficacy of formaldehyde was improved
same,impact on Salmonella reduction (in words),[2]; pelargonic acid alone at 0.00125% and 0.0025%,did not have a significant impact on Salmonella reduction
same,minimum inhibitory concentration (MIC),[5]; in liquid media,50 µg/mL
same,minimum inhibitory concentration (MIC),[5]; on solid media,40 µg/mL
same,bactericidal effect (in words),[3]; at the highest dose tested,not bactericidal
same,Salmonella % reduction,"[3]; formaldehyde 0 %, pelargonic acid 0.000312 %",0%
same,Salmonella % reduction,"[3]; formaldehyde 0 %, pelargonic acid 0.000625 %",0%
same,Salmonella % reduction,[3]; [26],0%
same,Salmonella % reduction,[3]; [27],0%
same,effect on the effectiveness of formaldehyde (in words),[3]; pelargonic acid at 0.00125 and 0.0025%,did appear to increase the effectiveness of formaldehyde
same,potentiation of aldehyde efficacy (in words),[6],potentiates the efficacy of each individual aldehyde and aldehyde combination
same,effect on efficacy of trans-2-hexenal (in words),[7],increases the efficacy of trans-2-hexenal
same,effectiveness against Salmonella versus trans-2-hexenal alone (in words),[8]; addition of pelargonic acid (5%) to trans-2-hexenal,better effectiveness against Salmonella than trans-2-hexenal by itself
CCCC=O [butyraldehyde],effectiveness compared with trans-2-hexenal (in words),[6]; [28],not as effective as trans-2-hexenal
same,effectiveness compared with trans-2-hexenal (in words),[6]; [29],as effective as 20% trans-2-hexenal
same,ability to replace trans-2-hexenal (in words),[6],can partially replace trans-2-hexenal
CCCCCCCCCC(=O)O [capric acid],minimum inhibitory concentration (MIC),[5]; in liquid media,75 µg/mL
same,minimum inhibitory concentration (MIC),[5]; on solid media,20 µg/mL
O=CC=Cc1ccccc1 [cinnamaldehyde],ability to replace trans-2-hexenal (in words),[6],can replace trans-2-hexenal
CC(C)=CCCC(C)=CC=O [citral],effectiveness compared with trans-2-hexenal (in words),[6]; [28],not as effective as trans-2-hexenal
same,effectiveness compared with trans-2-hexenal (in words),[6]; [29],as effective as 20% trans-2-hexenal
same,ability to replace trans-2-hexenal (in words),[6],can partially replace trans-2-hexenal
same,concentration equivalent to 25 ppm trans-2-hexenal and thermal treatment,[9],100-120 ppm
"CCCCCC=CC=CC=O [decadienal aldehyde, 2-4-decadienal]",ability to replace trans-2-hexenal (in words),[6],can replace trans-2-hexenal
CCCCCCCCCC=O [decanal],ability to replace trans-2-hexenal (in words),[6],can replace trans-2-hexenal
O=Cc1ccco1 [furfural],ability to replace trans-2-hexenal (in words),[6],can replace trans-2-hexenal
CCC/C=C/C=O [trans-2-hexenal],concentration effective at inhibiting growth,[10],250 µg/mL
same,minimum biocidal activity,[11],800 µg/mL
same,minimum inhibitory activity,[11],400 µg/mL
same,concentration effective on controlling,[12],12.5 μL/L
same,concentration that completely inhibited proliferation,[13],570 ug/L of air
same,phytotoxicity (in words),[14]; apricots,not phytotoxic
same,phytotoxicity (in words),[14]; peaches and nectarines at 40 μL/L,phytotoxic
same,effective concentration,[15],247 mg/L
same,fruit quality (in words),[16],"did not affect fruit appearance, color, firmness, soluble solids content or titratable acidity"
same,concentration that completely inhibited proliferation,[17],930 micrograms/L of air
same,concentration necessary to stabilize beverages,[9]; beverages not thermally treated,35 ppm
same,concentration controlling yeast in beverages,[9]; with thermal treatment (56° C. for 20 min),25 ppm
same,body weight and intake (in words),"[18]; 4000 ppm in diet, 13 wk","reduction in body weight and intake, but it was not significant"
same,hematological parameters or organ weights (in words),"[18]; dietary levels 260, 640, 1600 or 4000 ppm for 13 wk",did not induce any changes in hematological parameters or organ weights
same,control of mold (in words),[19],showed promise for control of mold
same,concentration that completely inhibited the growth,[20],8 ng/L air
same,% Reduction at 13 Days,[8]; 0.10 kg/ton hexenal,0%
same,% Reduction at 13 Days,[8]; 0.25 kg/ton hexenal,0%
same,% Reduction at 13 Days,[8]; 0.50 kg/ton hexenal,77.4%
same,% Reduction at 13 Days,[8]; 1.00 kg/ton hexenal,87.1%
same,toxic levels in rats relative to normal intake by humans,[21],30 times
C=CCCCCCCCCC=O [undecylenic aldehyde],ability to replace trans-2-hexenal (in words),[6],can replace trans-2-hexenal
